For 13 compounds, IC50 results are on record in US12612420B2, “Arginase inhibitors and methods of use thereof” (Molecure S.A., priority 2020, dated 2026).

Counter-ions that a name gives are not always drawn.

The target of assay [1] is T1, recombinant human arginase 2 (hARG2) (Homo sapiens, UniProt P78540).
T1 construct: made in house; host or cells: E. coli
T1 sequence (P78540 23-354): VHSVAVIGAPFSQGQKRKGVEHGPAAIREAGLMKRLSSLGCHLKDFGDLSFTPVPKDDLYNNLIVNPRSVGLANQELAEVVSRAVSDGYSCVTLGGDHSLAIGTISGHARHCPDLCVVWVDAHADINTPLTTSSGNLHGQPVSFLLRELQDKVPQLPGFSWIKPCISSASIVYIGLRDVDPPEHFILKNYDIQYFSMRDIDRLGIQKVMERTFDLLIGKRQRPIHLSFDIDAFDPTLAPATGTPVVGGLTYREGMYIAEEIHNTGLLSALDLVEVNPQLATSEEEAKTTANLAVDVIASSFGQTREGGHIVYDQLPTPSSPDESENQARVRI
The experiment in a line: Human arginase inhibition assay (colorimetric urea detection), arginase 2. It counts as biochemical. The following applies: IC50 class; hydrochloride salts; 1 h at 37° C., pH 7.4, 20 mM L-arginine, 200 μM MnCl2; read-out: Activity Class (ARG II). As to the method:
(§1) Human Arginase Inhibition Assay
(§2) The inhibitory activities of the compounds of the invention were assessed using recombinant human arginases 1 and 2. Both enzymes were biosynthesized using a prokaryotic expression system (E. coli) and purified by fast protein liquid chromatography (FPLC). The compounds were screened in 96-well plates at the total reaction volume of 100 μL. Briefly, recombinant enzymes were incubated with the tested compounds for 1 h at 37° C. in the reaction buffer (100 mM sodium phosphate buffer, 130 mM NaCl, 1 mg/mL BSA, pH 7.4) containing substrate (L-arginine hydrochloride, 10 mM for hARG1 and 20 mM for hARG2) and cofactor (200 μM MnCl2). The assay is based on the detection of urea, which is generated during the conversion of L-arginine into L-omithine catalyzed by ARG1 or ARG2 (Baggio et al. J Pharmacol. Exp. Ther. 1999, 290, 1409-1416). The colorimetrically detectable product was developed by adding a mixture of reagent A (4 mM oPA, 50 mM boric acid, 1 M sulfuric acid, 0.03% Brij-35) and reagent B (4 mM NED, 50 mM boric acid, 1 M sulfuric acid, 0.03% Brij-35) in equal proportions. The absorbance for each well was measured at 515 nm and the enzyme inhibition was calculated. The urea production in the absence of any tested compound was considered as maximal enzyme activity. The absorbance at the absence of arginase (background) was subtracted from all the values. The normalized values were analyzed using GraphPad Prism 7.0 software by plotting inhibition curves and determining the IC50 values.
(§3) The inhibitory activity classes of the hydrochloride salts of the exemplary compounds according to the invention are presented in Table 1

Assay [2] has as its target T2, intracellular arginase in macrophages isolated from murine bone marrow (BMDM) (Mus musculus, UniProt Q61176).
T2 construct: endogenous in cells; host or cells: primary bone-marrow-derived macrophages from C57BL/6 mice, cultured with M-CSF, TGF-β and IL-4
T2 sequence (Q61176 1-323): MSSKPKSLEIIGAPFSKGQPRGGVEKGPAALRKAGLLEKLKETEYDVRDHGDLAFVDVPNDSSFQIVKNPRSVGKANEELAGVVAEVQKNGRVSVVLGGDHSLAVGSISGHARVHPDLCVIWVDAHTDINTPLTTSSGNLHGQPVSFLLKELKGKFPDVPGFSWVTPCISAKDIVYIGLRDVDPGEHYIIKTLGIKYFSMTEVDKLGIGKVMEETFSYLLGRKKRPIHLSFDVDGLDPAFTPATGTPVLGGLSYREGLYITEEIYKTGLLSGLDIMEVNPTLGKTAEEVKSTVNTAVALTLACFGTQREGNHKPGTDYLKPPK
The assay can be described thus: Cell-based assay: intracellular arginase in bone marrow derived macrophages (BMDM), urea in culture medium. The following applies: IC50 class; M2-polarised murine BMDM (M-CSF, TGF-β, IL-4), urea in medium after 24 hours. Also on record: species or system murine (C57BL/6 mice). As to the method: To illustrate the lower cellular activity of the compounds according to the invention versus arginase inhibitors disclosed in U.S. Ser. No. 10/391,077 B2, the selected examples were tested in cell-based assay using murine primary macrophages. Lower intracellular activity observed for the compounds according to the invention may potentially result in lower hepatotoxicity compared to the arginase inhibitors disclosed in U.S. Ser. No. 10/391,077 B2.
Efficacy of Selected Examples Towards Intracellular Arginase in Macrophages Isolated from Murine Bone Marrow—Bone Marrow Derived Macrophages (BMDM)
Murine bone marrow-derived or peritoneal macrophages comprise a convenient in vitro model that enables differentiation of these cells towards M1 or M2 macrophages and further use for the study.
Materials & Methods: The assay was performed according to modified literature protocol (Pineda-Torra I et al., Methods Mol Biol. 2015; 1339:101-9. Mia S et al., Scand J Immunol. 2014 May; 79(5):305-14). The femurs and tibias were isolated from C57BL/6 mice. Bones were cleaned from all attached tissues by using a sterile swab without affecting the bone structure. The sides of the bones were cut off and flush with cold sterile PBS by using 26-G needle S into a 50 mL sterile tube with a cell strainer (Falcon™, Cat. No. U00149), until the bone cavity appeared white. Then, the cells were centrifuged (5 min at 500×G, 4° C.), washed twice with PBS and counted. Cells were plated in Petri dish in density of 1×10^6/mL and cultured in DMEM (Gibco, Cat. No. 31331-029) with 10% FBS, 1% pen-strep and 50 ng/mL M-CSF (PeproTech, Cat. No. 315-02), (37° C., 5% CO2). After five days cells were subcultured into P96 plate (BD, Cat. No. 353072) at the density of 64,000 cells/well in medium supplemented with 50 ng/mL M-CSF, 20 ng/mL TGF-β and 30 ng/mL IL-4 (Biomibo Cat. No. 214-1). One day later exemplary compounds (dissolved in PBS) were added in several different concentrations and 24 hours later the level of urea was measured in the culture medium in each well (Jung D et al., Clin Chem. 1975, 21(8):1136-40). The concentration of urea in the absence of any compound was considered as the maximum enzyme activity. The absorbance of cell culture media (background) was subtracted from all the values.
The IC50 values were calculated using GraphPad Prism 7.0. and assigned into the following classes: A=10-100 μM; and B>100 μM.

Assay [3] has as its target T3, recombinant human arginase 1 (hARG1) (Homo sapiens, UniProt P05089).
T3 construct: made in house; host or cells: E. coli
T3 sequence (P05089 1-322): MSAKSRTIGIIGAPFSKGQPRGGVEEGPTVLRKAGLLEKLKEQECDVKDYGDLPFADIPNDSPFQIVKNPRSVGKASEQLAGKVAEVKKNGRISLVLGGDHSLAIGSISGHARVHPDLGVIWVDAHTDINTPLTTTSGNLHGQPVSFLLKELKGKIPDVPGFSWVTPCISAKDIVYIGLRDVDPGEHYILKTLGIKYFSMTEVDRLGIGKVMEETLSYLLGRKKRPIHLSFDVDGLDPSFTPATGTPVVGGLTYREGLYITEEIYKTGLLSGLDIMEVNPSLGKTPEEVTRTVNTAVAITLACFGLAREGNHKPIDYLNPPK
The assay can be described thus: Human arginase inhibition assay (colorimetric urea detection), arginase 1. The assay is classed as biochemical. The following applies: IC50 class; hydrochloride salts; 1 h at 37° C., pH 7.4, 10 mM L-arginine, 200 μM MnCl2; read-out: Activity Class (ARG I). As to the method: as §1, §2, §3

Consider `N[C@]1(C(=O)O)C[C@H](CCB(O)O)CC[C@H]1CNC(=O)[C@@H]1CCCN1` [Example 5, (1R,2S,5R)-1-Amino-5-(2-boronoethyl)-2-(((S)-pyrrolidine-2-carboxamido)methyl)cyclohexane-1-carboxylic acid dihydrochloride], for which the IC50 is over 300 nM in assay [1], over 100000 nM in assay [2] and 1 to 99 nM in assay [3].
On the same counts, the results for `CC[C@H](C)[C@H](N)C(=O)NC[C@@H]1CC[C@@H](CCB(O)O)C[C@]1(N)C(=O)O` [Example 10, (1R,2S,5R)-1-Amino-2-(((2S,3S)-2-amino-3-methylpentanamido)methyl)-5-(2-boronoethyl)cyclohexane-1-carboxylic acid dihydrochloride] are over 300 nM, over 100000 nM and 1 to 99 nM.
Turning to `CC(C)(C)[C@H](N)C(=O)NC[C@@H]1CC[C@@H](CCB(O)O)C[C@]1(N)C(=O)O` [Example 12, (1R,2S,5R)-1-Amino-2-(((S)-2-amino-3,3-dimethylbutanamido)methyl)-5-(2-boronoethyl)cyclohexane-1-carboxylic acid dihydrochloride], the IC50 is 200 to 299 nM in assay [1], over 100000 nM in assay [2] and 1 to 99 nM in assay [3].
On the same counts, the results for `NCC(=O)NC[C@@H]1CC[C@@H](CCB(O)O)C[C@]1(N)C(=O)O` [Example 4, (1R,2S,5R)-1-Amino-2-((2-aminoacetamido)methyl)-5-(2-boronoethyl)cyclohexane-1-carboxylic acid dihydrochloride] are over 300 nM, over 100000 nM and 1 to 99 nM.
Take `CSCC[C@H](N)C(=O)NC[C@@H]1CC[C@@H](CCB(O)O)C[C@]1(N)C(=O)O` [Example 17, (1R,2S,5R)-1-Amino-2-(((S)-2-amino-4-(methylthio)butanamido)methyl)-5-(2-boronoethyl)cyclohexane-1-carboxylic acid dihydrochloride]: the IC50 in assay [1] was in the range of 200 to 299 nM; in assay [2], 10000 to 100000 nM; in assay [3], 1 to 99 nM.
On the same counts, the results for `CC(C)[C@H](N)C(=O)NC[C@@H]1CC[C@@H](CCB(O)O)C[C@]1(N)C(=O)O` [Example 2, (1R,2S,5R)-1-Amino-2-(((S)-2-amino-3-methylbutanamido)methyl)-5-(2-boronoethyl)cyclohexane-1-carboxylic acid dihydrochloride] are 200 to 299 nM, 10000 to 100000 nM and 100 to 199 nM.
In the case of `C[C@@H](O)[C@H](N)C(=O)NC[C@@H]1CC[C@@H](CCB(O)O)C[C@]1(N)C(=O)O` [Example 19, (1R,2S,5R)-1-Amino-2-(((2S,3R)-2-amino-3-hydroxybutanamido)methyl)-5-(2-boronoethyl)cyclohexane-1-carboxylic acid dihydrochloride], the IC50 in assay [1] is over 300 nM; in assay [3] it was 100 to 199 nM.
`N=C(N)NCCC[C@H](N)C(=O)NC[C@@H]1CC[C@@H](CCB(O)O)C[C@]1(N)C(=O)O` [Example 13, (1R,2S,5R)-1-Amino-2-(((S)-2-amino-5-guanidinopentanamido)methyl)-5-(2-boronoethyl)cyclohexane-1-carboxylic acid trihydrochloride]: the IC50 was over 300 nM in assay [1], over 100000 nM in assay [2] and 1 to 99 nM in assay [3].
Turning to `N[C@H](C(=O)NC[C@@H]1CC[C@@H](CCB(O)O)C[C@]1(N)C(=O)O)C1CCCC1` [Example 11, (1R,2S,5R)-1-Amino-2-(((S)-2-amino-2-cyclopentylacetamido)methyl)-5-(2-boronoethyl)cyclohexane-1-carboxylic acid dihydrochloride], the values for the IC50 in assay [1] and in assay [3] were 100 to 199 nM and 1 to 99 nM, respectively.
On the same counts, the results for `CC(C)[C@H](N)C(=O)NC[C@H]1CC[C@@H](CCB(O)O)C[C@]1(N)C(=O)O` [Example 34, (1R,2R,5R)-1-Amino-2-(((S)-2-amino-3-methylbutanamido)methyl)-5-(2-boronoethyl)cyclohexane-1-carboxylic acid dihydrochloride] are over 300 nM and over 300 nM.
The like results for `N[C@@H](Cc1c[nH]cn1)C(=O)NC[C@@H]1CC[C@@H](CCB(O)O)C[C@]1(N)C(=O)O` [Example 8, (1R,2S,5R)-1-Amino-2-(((S)-2-amino-3-(1H-imidazol-4-yl)propanamido)methyl)-5-(2-boronoethyl)cyclohexane-1-carboxylic acid trihydrochloride] were, in that order, over 300 nM and 100 to 199 nM.
The like results for `CC(C)[C@H](N)C(=O)N(C)C[C@@H]1CC[C@@H](CCB(O)O)C[C@]1(N)C(=O)O` [Example 25, (1R,2S,5R)-1-Amino-2-(((S)-2-amino-N,3-dimethylbutanamido)methyl)-5-(2-boronoethyl)cyclohexane-1-carboxylic acid dihydrochloride] were, in that order, over 300 nM and 1 to 99 nM.
As to `CC(C)(O)[C@H](N)C(=O)NC[C@@H]1CC[C@@H](CCB(O)O)C[C@]1(N)C(=O)O` [Example 16, (1R,2S,5R)-1-Amino-2-(((S)-2-amino-3-hydroxy-3-methylbutanamido)methyl)-5-(2-boronoethyl)cyclohexane-1-carboxylic acid dihydrochloride], the IC50 is over 300 nM in assay [1] and 100 to 199 nM in assay [3].
